This passage reports TGI results from PubChem BioAssay (NCI).

Test systems include IGROV1 ovarian; PC-3 prostate; MALME-3M melanoma; NCI-H522 lung; NCI-H460 lung; UO-31 renal; SNB-75 CNS; SF-295 CNS; HCC-2998 colon; HL-60(TB) leukemia.
Common to all, as to assay: NCI-60 cell line screen, 48 h

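Briefly, cells in 96-well plates were exposed to five compound concentrations for 48 h, and endpoints were estimated by linear interpolation. At the TGI there is no net growth.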 Some results are limits rather than exact numbers.

Regarding `COC(=O)C1=C(C)C=C(N2CCOCC2)C(C(=O)OC)C1c1ccccc1` (configuration not stated), the TGI in the test on IGROV1 ovarian, in the test on PC-3 prostate, in the test on MALME-3M melanoma, in the test on NCI-H522 lung, in the test on NCI-H460 lung and with UO-31 renal was more than 10 µM in each case. The TGI in the test on SNB-75 CNS, in the test on SF-295 CNS and in the test with HCC-2998 colon was more than 10 µM throughout.

Consider `CC(C)(C)C1=CC(=C2C(=O)C(=O)c3ccccc3C2=O)C=C(C(C)(C)C)C1=O`, for which the TGI is more than 100 µM in the test on IGROV1 ovarian; more than 100 µM with HL-60(TB) leukemia; 58.7 µM in the test with MALME-3M melanoma; 37.9 µM in the test on NCI-H522 lung; more than 100 µM in the test with NCI-H460 lung; more than 100 µM in the test on UO-31 renal. The TGI in the test with SNB-75 CNS, with SF-295 CNS and in the test with HCC-2998 colon was more than 100 µM throughout.

Regarding `CC(=O)NC(Cc1ccsc1)C(=O)O` (configuration not stated), the TGI in the test on IGROV1 ovarian, with HL-60(TB) leukemia, with MALME-3M melanoma, with NCI-H522 lung, in the test with NCI-H460 lung and with UO-31 renal was more than 100 µM in each case. Further, the TGI in the test with SNB-75 CNS, with SF-295 CNS and in the test with HCC-2998 colon was more than 100 µM in each case.

For `CSc1ccc(/C=C2\N=C(c3ccccc3)N(c3nc4cc(C)c(C)cc4s3)C2=O)cc1`, the TGI with IGROV1 ovarian is 81.4 µM; with HL-60(TB) leukemia, 86.3 µM; with PC-3 prostate it was 49.3 µM; in the test with NCI-H460 lung, more than 100 µM; with UO-31 renal it was more than 100 µM; in the test with SNB-75 CNS, 55.2 µM. In addition, the TGI in the test with SF-295 CNS was more than 100 µM; in the test on HCC-2998 colon, 82.4 µM.

Turning to `O=C(O)C12CCCCC1CCCC2` (configuration not stated), the TGI in the test on IGROV1 ovarian, with HL-60(TB) leukemia, in the test on NCI-H522 lung, in the test on NCI-H460 lung, in the test on SNB-75 CNS and in the test on SF-295 CNS was more than 100 µM throughout. Further, the TGI in the test on HCC-2998 colon was more than 100 µM.

In the case of `CSc1ncc2c(n1)sc1c(=O)n(-c3ccccc3)cnc12`, the TGI with IGROV1 ovarian, in the test on PC-3 prostate, in the test with MALME-3M melanoma, in the test with NCI-H522 lung, in the test with NCI-H460 lung and with UO-31 renal was more than 100 µM each time. Besides, the TGI in the test with SNB-75 CNS, with SF-295 CNS and in the test on HCC-2998 colon was more than 100 µM in each case.

For `COc1ccc2[nH]c3c(C)c4ccnc(NCCCN(C)CCCNc5ccc6ncn7c8ccccc8c(=O)c5c67)c4c(C)c3c2c1`, the TGI is 1.32 µM in the test on IGROV1 ovarian; 4.21 µM in the test with PC-3 prostate; 5.92 µM with MALME-3M melanoma; 1.24 µM in the test with NCI-H522 lung; 0.682 µM in the test on NCI-H460 lung; 4.21 µM in the test on UO-31 renal. Also, the TGI in the test with SNB-75 CNS is 7.38 µM; in the test on SF-295 CNS, 1.85 µM.

For the compound `Cn1c(=O)sc2cc(C(=S)N3CCC(Cc4ccccc4)CC3)ccc21`, the TGI in the test on IGROV1 ovarian, with HL-60(TB) leukemia, in the test on PC-3 prostate, in the test with NCI-H460 lung and with SF-295 CNS was more than 100 µM each time.

Regarding `O=C(CSc1nc2ccc(I)cc2c(=O)n1Cc1ccccc1)NNC(=O)c1ccccc1`, the TGI in the test on IGROV1 ovarian was 24.7 µM; in the test on HL-60(TB) leukemia it was more than 100 µM; in the test with PC-3 prostate, 24 µM; in the test with NCI-H522 lung, 25.8 µM; in the test with NCI-H460 lung, more than 100 µM; with UO-31 renal, 2.73 µM. In addition, the TGI was 10.3 µM in the test with SNB-75 CNS, 30.7 µM in the test on SF-295 CNS and more than 100 µM in the test on HCC-2998 colon.

Consider `O=C(O)CCCc1ccc2ccccc2c1`, for which the TGI in the test with IGROV1 ovarian, in the test with HL-60(TB) leukemia, in the test with PC-3 prostate, in the test with NCI-H522 lung, in the test on NCI-H460 lung and in the test with UO-31 renal was more than 100 µM in each case. Besides, the TGI in the test on SF-295 CNS and in the test on HCC-2998 colon was more than 100 µM in each case.

Consider `O=c1c2cc(Cl)cc(Cl)c2oc2nc3n(c(=O)c12)CCCS3`, for which the TGI with IGROV1 ovarian was more than 100 µM; with PC-3 prostate it was more than 100 µM; in the test on MALME-3M melanoma it was more than 100 µM; in the test on NCI-H522 lung, 81.6 µM; in the test with NCI-H460 lung, more than 100 µM; with UO-31 renal it was 40.4 µM. The TGI in the test with SNB-75 CNS, in the test with SF-295 CNS and in the test on HCC-2998 colon was more than 100 µM in each case.

As to `CCOC1Oc2ccccc2-c2nc(SC)ncc21` (configuration not stated), the TGI with IGROV1 ovarian, with HL-60(TB) leukemia, in the test with PC-3 prostate, in the test on NCI-H522 lung, in the test with NCI-H460 lung and in the test with UO-31 renal was more than 100 µM each time. Further, the TGI in the test on SNB-75 CNS and with SF-295 CNS was more than 100 µM throughout.

As for `COc1cc(C2C(Cl)C(=O)N2NC(=O)c2ccc(N)cc2)cc(Br)c1O` (configuration not stated), the TGI with IGROV1 ovarian worked out at 34 µM; in the test on HL-60(TB) leukemia, 27.6 µM; in the test with MALME-3M melanoma it was 27.5 µM; in the test with NCI-H522 lung it was 3.4 µM; with NCI-H460 lung it was 31.4 µM; in the test with UO-31 renal it was 35.6 µM. Further, the figures for the TGI in the test on SNB-75 CNS, with SF-295 CNS and with HCC-2998 colon were 33.3 µM, 27.7 µM and 24.3 µM, respectively.

As to `O=Cc1ccc(CCl)cc1`, the TGI with IGROV1 ovarian came to 46.3 µM; in the test with HL-60(TB) leukemia, 23.9 µM; in the test with NCI-H522 lung, 35.9 µM; in the test with NCI-H460 lung, 37.1 µM; in the test with UO-31 renal it was 34.8 µM; in the test on SF-295 CNS it was 32 µM.

For the compound `Cc1c2ccncc2c(C)c2c1[nH]c1ccc(OCC(F)(F)F)cc12`, the TGI came out at 3.03 µM in the test with IGROV1 ovarian; 3.23 µM in the test on MALME-3M melanoma; 3.22 µM in the test with NCI-H522 lung; 2.46 µM in the test on NCI-H460 lung; 3.16 µM with UO-31 renal; 3.65 µM in the test with SNB-75 CNS. In addition, the TGI in the test on SF-295 CNS was found to be 3.01 µM.

As for `COP(=O)(OC)C(O)CC(C)C` (configuration not stated), the TGI in the test on HL-60(TB) leukemia, in the test on PC-3 prostate, with NCI-H460 lung, in the test on UO-31 renal, in the test on SNB-75 CNS and in the test with SF-295 CNS was more than 100 µM throughout. This compound also displayed a TGI in the test on HCC-2998 colon of more than 100 µM.
